Data published in publication PMC2247270, “Inhibition of vincristine binding to plasma membrane vesicles from daunorubicin-resistant Ehrlich ascites cells by multidrug resistance modulators” (British Journal of Cancer, 1989).

Target: T1, P-glycoprotein
T1 construct: plasma membrane vesicles from EHR2/DNR+ Ehrlich ascites tumour cells
Experiment: inhibition of 3H-vincristine binding to plasma membrane vesicles, rapid filtration
Format: biochemical

IC50: 23.2 µM
SMILES: CN1CCN(CCCN2c3ccccc3Sc3ccc(C(F)(F)F)cc32)CC1 [TFP, trifluoperazine]
